# Assay results published in ChEMBL document CHEMBL3856191, “Structural modifications at the 6-position of thieno[2,3-d]pyrimidines and their effects on potency at FLT3 for treatment of acute myeloid leukemia” (Eur J Med Chem, 2016).
# Key:
# [1] = Oral bioavailability in Sprague-Dawley rat at 30 mg/kg up to 24 hrs by LC/MS/MS analysis; format: ADME, organism-based; details: in vivo
# [2] = target: Aurora kinase B (Homo sapiens) (UniProt Q96GD4); test: Inhibition of human AURORA B assessed as remaining activity at 10 uM preincubated for 15 mins followed by substrate addition for 30 mins in presence of [gamma-32P]ATP by […] assay
# [3] = Tmax in Sprague-Dawley rat at 30 mg/kg, po by LC/MS/MS analysis; format: ADME, organism-based; details: in vivo
# cells [4] = details: Homo sapiens, K562, 48 h
# Description: Growth inhibition of human K562 cells after 48 hrs by XTT assay
# [5] = target: PI3K p110 beta/p85 alpha (Homo sapiens) (UniProt P27986+P42338); test: Inhibition of PI3K p110beta/p85alpha (unknown origin) assessed as remaining activity at 10 uM in presence of [gamma-32P]ATP by […] assay; format: protein-complex assay
# [6] = target: Tyrosine-protein kinase Lck (Homo sapiens) (UniProt P06239); test: Inhibition of recombinant human LCK expressed in insect cells assessed as remaining activity at 10 uM preincubated for 15 mins followed by poly(Glu:Tyr) substrate addition for 30 mins in presence of [gamma-32P]ATP by […] assay
# cells [7] = details: Homo sapiens, THP-1, 48 h
# Description: Growth inhibition of human THP1 cells expressing wild type FLT-3 after 48 hrs by XTT assay
# [8] = target: Mitogen-activated protein kinase 14 (Homo sapiens) (UniProt Q16539); test: Inhibition of human SAPK2a assessed as remaining activity at 10 uM in presence of [gamma-32P]ATP by […] assay
# [9] = target: Mitogen-activated protein kinase 8 (Homo sapiens) (UniProt P45983); test: Inhibition of recombinant human JNK1alpha1 expressed in insect Sf21 cells assessed as remaining activity at 10 uM preincubated for 15 mins followed by ATF2 substrate addition for 30 mins in presence of [gamma-32P]ATP by […] assay
# [10] = target: Epidermal growth factor receptor (Homo sapiens) (UniProt P00533); test: Inhibition of human EGFR assessed as remaining activity at 10 uM in presence of [gamma-32P]ATP by […] assay
# [11] = target: Tyrosine-protein kinase ABL1 (Homo sapiens, UniProt P00519); test: Inhibition of recombinant human ABL1 expressed in insect cells preincubated for 15 mins followed by poly(Glu:Tyr) substrate addition for 30 mins in presence of [gamma-32P]ATP by […] assay
# [12] = target: Platelet-derived growth factor receptor alpha (Homo sapiens) (UniProt P16234); test: Inhibition of recombinant human PDGFR-alpha expressed in insect Sf21 cells assessed as remaining activity at 10 uM preincubated for 15 mins followed by poly(Glu:Tyr) substrate addition for 30 mins in presence of [gamma-32P]ATP by […] assay
# [13] = target: Tyrosine-protein kinase JAK1 (Homo sapiens) (UniProt P23458); test: Inhibition of human JAK1 assessed as remaining activity at 10 uM in presence of [gamma-32P]ATP by […] assay
# [14] = target: Vascular endothelial growth factor receptor 2 (Homo sapiens) (UniProt P35968); test: Inhibition of recombinant human KDR expressed in insect Sf21 cells assessed as remaining activity at 10 uM preincubated for 15 mins followed by poly(Glu:Tyr) substrate addition for 30 mins in presence of [gamma-32P]ATP by […] assay
# [15] = target: Mitogen-activated protein kinase 12 (Homo sapiens) (UniProt P53778); test: Inhibition of human SAPK3 assessed as remaining activity at 10 uM in presence of [gamma-32P]ATP by […] assay
# [16] = target: Serine-protein kinase ATM (Homo sapiens) (UniProt Q13315); test: Inhibition of human ATM assessed as remaining activity at 10 uM preincubated for 15 mins followed by substrate addition for 30 mins in presence of [gamma-32P]ATP by […] assay
# [17] = target: Tyrosine-protein kinase ZAP-70 (Homo sapiens) (UniProt P43403); test: Inhibition of recombinant human ZAP-70 expressed in insect Sf21 cells assessed as remaining activity at 10 uM preincubated for 15 mins followed by poly(Glu:Tyr) substrate addition for 30 mins in presence of [gamma-32P]ATP by […] assay
# [18] = target: cAMP-dependent protein kinase catalytic subunit alpha (Homo sapiens) (UniProt P17612); test: Inhibition of human recombinant PRKACA expressed in Escherichia coli assessed as remaining activity at 10 uM preincubated for 15 mins followed by PKA substrate peptide addition measured after 30 mins in presence of [gamma-32P]ATP by […] assay
# [19] = AUC (0 to infinity) in Sprague-Dawley rat at 30 mg/kg, up to 24 hrs by LC/MS/MS analysis; format: ADME, organism-based; set-up: dose 30 mg/kg, time infinity; details: in vivo
# [20] = target: Tyrosine-protein kinase BTK (Homo sapiens) (UniProt Q06187); test: Inhibition of recombinant human BTK expressed in insect Sf21 cells assessed as remaining activity at 10 uM preincubated for 15 mins followed by poly(Glu:Tyr) substrate addition for 30 mins in presence of [gamma-32P]ATP by […] assay
# [21] = Metabolic stability in human liver microsomes assessed as compound remaining at 1 uM after 30 mins in presence of NADPH by HPLC-MS analysis; format: ADME; details: read-out: Stability
# [22] = target: Inhibitor of nuclear factor kappa-B kinase subunit alpha (Homo sapiens) (UniProt O15111); test: Inhibition of recombinant human IKK-alpha expressed in insect Sf21 cells assessed as remaining activity at 10 uM preincubated for 15 mins followed by IKKtide substrate addition for 30 mins in presence of [gamma-32P]ATP by […] assay
# [23] = target: Mitogen-activated protein kinase 11 (Homo sapiens) (UniProt Q15759); test: Inhibition of human SAPK2b assessed as remaining activity at 10 uM in presence of [gamma-32P]ATP by […] assay
# [24] = target: Fibroblast growth factor receptor 1 (Homo sapiens) (UniProt P11362); test: Inhibition of recombinant human FGFR1 expressed in insect Sf21 cells assessed as remaining activity at 10 uM preincubated for 15 mins followed by poly(Glu:Tyr) substrate addition for 30 mins in presence of [gamma-32P]ATP by […] assay
# [25] = target: Mitogen-activated protein kinase 1 (Homo sapiens) (UniProt P28482); test: Inhibition of recombinant human MAPK1 expressed in Escherichia coli assessed as remaining activity at 10 uM preincubated for 15 mins followed by myelin basic protein substrate addition for 30 mins in presence of [gamma-32P]ATP by […] assay
# [26] = target: Inhibitor of nuclear factor kappa-B kinase subunit beta (Homo sapiens) (UniProt O14920); test: Inhibition of recombinant human IKK-beta expressed in insect Sf21 cells assessed as remaining activity at 10 uM preincubated for 15 mins followed by IKKtide substrate addition for 30 mins in presence of [gamma-32P]ATP by […] assay
# Chain of Inhibitor of nuclear factor kappa-B kinase subunit beta (Homo sapiens) (O14920 whole entry): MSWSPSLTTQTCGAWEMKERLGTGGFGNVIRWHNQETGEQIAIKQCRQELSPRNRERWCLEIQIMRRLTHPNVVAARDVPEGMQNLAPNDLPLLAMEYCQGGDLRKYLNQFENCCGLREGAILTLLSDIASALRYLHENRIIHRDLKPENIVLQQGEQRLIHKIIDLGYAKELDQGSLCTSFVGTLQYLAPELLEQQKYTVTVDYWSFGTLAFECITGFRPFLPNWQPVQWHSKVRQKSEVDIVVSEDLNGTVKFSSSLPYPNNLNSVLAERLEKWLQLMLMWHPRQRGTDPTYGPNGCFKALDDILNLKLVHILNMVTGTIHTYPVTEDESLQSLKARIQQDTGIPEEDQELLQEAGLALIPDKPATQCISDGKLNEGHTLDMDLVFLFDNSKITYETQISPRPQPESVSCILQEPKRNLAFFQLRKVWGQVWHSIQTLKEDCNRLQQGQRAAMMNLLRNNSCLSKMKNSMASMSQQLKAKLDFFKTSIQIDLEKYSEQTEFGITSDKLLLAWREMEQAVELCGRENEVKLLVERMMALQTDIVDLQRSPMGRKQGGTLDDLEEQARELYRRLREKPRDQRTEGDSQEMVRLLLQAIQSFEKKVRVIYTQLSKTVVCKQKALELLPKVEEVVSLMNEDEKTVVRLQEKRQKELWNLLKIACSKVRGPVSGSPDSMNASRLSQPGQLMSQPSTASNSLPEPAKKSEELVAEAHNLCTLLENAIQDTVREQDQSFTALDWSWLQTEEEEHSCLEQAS
# Chain of Mitogen-activated protein kinase 1 (Homo sapiens) (P28482 whole entry): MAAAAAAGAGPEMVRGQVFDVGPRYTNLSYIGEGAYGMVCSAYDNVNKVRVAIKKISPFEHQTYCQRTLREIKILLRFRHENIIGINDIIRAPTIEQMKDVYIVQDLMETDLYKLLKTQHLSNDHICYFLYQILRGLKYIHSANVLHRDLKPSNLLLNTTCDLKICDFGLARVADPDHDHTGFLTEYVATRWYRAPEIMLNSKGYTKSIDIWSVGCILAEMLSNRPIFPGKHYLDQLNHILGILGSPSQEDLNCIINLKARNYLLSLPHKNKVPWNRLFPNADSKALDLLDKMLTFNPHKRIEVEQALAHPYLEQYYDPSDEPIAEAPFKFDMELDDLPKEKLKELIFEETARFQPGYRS
# Chain of Aurora kinase B (Homo sapiens) (Q96GD4 whole entry): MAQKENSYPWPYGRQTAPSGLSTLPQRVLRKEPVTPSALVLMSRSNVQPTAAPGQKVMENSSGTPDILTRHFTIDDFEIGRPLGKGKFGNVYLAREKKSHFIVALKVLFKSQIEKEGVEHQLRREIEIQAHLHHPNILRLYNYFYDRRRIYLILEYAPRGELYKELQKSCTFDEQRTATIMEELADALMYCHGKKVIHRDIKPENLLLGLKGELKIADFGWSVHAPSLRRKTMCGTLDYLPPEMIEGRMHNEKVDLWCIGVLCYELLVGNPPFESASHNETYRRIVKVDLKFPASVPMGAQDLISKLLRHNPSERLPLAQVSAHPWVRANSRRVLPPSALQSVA
# Chain of PI3K p110 beta/p85 alpha (Homo sapiens) (P27986 2-724 limits assumed): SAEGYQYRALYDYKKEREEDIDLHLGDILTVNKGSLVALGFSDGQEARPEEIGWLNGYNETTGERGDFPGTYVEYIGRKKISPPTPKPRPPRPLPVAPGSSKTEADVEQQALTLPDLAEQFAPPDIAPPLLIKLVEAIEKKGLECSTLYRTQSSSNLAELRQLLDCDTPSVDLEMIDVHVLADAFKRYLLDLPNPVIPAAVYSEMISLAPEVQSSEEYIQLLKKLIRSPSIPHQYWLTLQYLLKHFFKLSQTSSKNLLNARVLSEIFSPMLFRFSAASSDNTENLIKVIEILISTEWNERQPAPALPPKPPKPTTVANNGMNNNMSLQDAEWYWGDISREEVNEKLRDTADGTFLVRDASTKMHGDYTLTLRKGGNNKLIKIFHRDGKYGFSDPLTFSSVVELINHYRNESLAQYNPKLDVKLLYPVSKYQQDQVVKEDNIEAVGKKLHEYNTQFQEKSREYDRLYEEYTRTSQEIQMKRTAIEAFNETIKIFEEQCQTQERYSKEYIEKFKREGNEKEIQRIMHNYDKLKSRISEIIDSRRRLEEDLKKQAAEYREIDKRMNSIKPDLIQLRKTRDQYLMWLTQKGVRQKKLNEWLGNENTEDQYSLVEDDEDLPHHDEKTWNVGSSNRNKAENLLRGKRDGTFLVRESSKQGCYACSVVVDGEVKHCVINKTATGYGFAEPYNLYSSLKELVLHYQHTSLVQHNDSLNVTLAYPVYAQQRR
# Chain of PI3K p110 beta/p85 alpha (Homo sapiens) (P42338 whole entry partner): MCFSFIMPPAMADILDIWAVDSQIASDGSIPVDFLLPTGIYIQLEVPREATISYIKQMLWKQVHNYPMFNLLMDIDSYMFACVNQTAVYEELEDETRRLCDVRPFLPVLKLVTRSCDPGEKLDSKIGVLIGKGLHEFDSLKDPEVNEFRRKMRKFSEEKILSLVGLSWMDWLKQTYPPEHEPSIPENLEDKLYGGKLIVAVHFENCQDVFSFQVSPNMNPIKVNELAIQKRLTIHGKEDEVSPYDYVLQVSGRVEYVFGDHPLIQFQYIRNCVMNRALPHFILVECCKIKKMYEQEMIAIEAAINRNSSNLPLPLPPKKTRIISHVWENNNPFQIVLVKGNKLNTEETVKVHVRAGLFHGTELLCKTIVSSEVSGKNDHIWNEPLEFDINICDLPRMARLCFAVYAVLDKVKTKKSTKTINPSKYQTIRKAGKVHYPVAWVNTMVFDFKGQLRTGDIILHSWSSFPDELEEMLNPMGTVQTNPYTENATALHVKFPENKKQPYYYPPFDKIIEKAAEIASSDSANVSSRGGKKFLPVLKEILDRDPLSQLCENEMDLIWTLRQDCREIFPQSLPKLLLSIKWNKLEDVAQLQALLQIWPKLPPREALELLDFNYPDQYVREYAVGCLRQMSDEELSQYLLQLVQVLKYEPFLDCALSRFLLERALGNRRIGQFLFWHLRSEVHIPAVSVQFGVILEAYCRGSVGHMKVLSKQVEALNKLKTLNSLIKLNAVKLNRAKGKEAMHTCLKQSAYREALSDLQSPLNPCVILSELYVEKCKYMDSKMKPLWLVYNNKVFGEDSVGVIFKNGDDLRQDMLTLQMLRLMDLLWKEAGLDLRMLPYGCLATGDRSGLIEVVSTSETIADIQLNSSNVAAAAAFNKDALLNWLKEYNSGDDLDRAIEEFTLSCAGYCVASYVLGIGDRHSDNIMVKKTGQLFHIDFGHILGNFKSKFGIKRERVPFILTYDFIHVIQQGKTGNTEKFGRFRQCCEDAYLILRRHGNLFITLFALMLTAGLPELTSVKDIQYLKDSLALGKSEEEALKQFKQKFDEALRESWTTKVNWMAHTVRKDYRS
# Chain of Tyrosine-protein kinase BTK (Homo sapiens) (Q06187 whole entry): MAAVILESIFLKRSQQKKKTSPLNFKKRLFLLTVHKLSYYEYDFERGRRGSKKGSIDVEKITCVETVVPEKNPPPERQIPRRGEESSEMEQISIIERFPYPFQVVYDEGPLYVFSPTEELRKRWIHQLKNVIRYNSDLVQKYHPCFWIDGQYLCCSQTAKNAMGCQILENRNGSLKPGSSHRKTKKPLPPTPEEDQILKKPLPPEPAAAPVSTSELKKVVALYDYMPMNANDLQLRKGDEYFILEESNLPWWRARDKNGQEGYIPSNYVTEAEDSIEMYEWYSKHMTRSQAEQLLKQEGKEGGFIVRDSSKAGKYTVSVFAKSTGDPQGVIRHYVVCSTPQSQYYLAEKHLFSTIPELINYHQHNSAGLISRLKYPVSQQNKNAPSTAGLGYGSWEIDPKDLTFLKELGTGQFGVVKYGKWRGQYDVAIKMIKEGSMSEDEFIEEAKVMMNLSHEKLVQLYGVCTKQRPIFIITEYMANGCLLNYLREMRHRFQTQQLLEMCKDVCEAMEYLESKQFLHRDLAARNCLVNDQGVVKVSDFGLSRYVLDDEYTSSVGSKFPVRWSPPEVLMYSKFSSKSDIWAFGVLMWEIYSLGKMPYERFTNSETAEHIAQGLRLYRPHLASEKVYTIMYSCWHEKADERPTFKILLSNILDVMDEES
# Chain of Mitogen-activated protein kinase 14 (Homo sapiens) (Q16539 whole entry): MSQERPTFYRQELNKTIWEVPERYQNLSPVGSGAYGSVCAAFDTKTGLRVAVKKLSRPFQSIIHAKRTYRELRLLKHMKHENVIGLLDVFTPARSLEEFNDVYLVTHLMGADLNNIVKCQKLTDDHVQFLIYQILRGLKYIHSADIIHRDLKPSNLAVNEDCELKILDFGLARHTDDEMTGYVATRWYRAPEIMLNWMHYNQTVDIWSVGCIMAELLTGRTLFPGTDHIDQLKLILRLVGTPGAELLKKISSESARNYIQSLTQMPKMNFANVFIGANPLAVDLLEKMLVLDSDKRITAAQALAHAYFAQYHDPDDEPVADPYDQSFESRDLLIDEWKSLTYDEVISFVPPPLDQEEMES
# Chain of Mitogen-activated protein kinase 11 (Homo sapiens) (Q15759 whole entry): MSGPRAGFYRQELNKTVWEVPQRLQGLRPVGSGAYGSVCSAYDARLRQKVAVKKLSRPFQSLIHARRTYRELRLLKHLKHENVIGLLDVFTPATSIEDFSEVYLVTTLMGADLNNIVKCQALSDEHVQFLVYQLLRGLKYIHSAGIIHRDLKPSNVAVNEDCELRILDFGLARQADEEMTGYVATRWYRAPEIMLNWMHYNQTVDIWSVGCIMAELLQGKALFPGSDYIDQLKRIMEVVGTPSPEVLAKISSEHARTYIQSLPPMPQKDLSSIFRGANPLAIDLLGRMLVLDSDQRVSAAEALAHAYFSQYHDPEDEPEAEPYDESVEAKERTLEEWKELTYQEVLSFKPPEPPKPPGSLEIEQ
# Chain of Mitogen-activated protein kinase 12 (Homo sapiens) (P53778 whole entry): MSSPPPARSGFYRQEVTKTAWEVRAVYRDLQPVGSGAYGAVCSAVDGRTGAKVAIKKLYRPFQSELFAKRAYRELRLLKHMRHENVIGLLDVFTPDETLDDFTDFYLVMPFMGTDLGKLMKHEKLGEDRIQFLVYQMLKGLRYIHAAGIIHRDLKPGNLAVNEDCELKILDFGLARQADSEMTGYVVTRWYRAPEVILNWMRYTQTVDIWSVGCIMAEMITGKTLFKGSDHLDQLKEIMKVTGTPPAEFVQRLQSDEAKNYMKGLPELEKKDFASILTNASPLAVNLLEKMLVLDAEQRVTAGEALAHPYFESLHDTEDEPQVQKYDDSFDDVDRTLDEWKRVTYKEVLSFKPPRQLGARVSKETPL
compound,measurement,setting,value
CNCCOc1ccc(-c2sc3nc(-c4cccs4)nc(NN4C(=O)C=C(C)C4=O)c3c2C)cc1.Cl,bioavailability,[1],17%
same,Activity,[2],42%
same,Tmax,[3],15 min
same,GI50,cells [4],564 nM
same,Activity,[5],70%
same,Activity,[6],31%
same,GI50,cells [7],559 nM
same,Activity,[8],92%
same,Activity,[9],96%
same,Activity,[10],87%
same,IC50,[11],2880 nM
same,Activity,[12],115%
same,Activity,[13],111%
same,Activity,[14],53%
same,Activity,[15],99%
same,Activity,[16],30%
same,Activity,[17],101%
same,Activity,[18],112%
same,AUC(0-inf),[19],2170 ng·h/mL
same,Activity,[20],83%
same,"remaining at 0.5 h, 1 µM",[21],79.8%
same,Activity,[22],101%
same,Activity,[23],90%
same,Activity,[24],53%
same,Activity,[25],114%
same,Activity,[26],63%
